Among the data in patent US20250304576A1 (Cancer Research Technology Limited, priority 2022, published 2025) are Ki values, retold here.

The target in one experiment is T1, Recombinant IKKα (Homo sapiens, UniProt O15111).
T1 construct: purchased Millipore, Dundee, UK
T1 sequence (O15111 1-745): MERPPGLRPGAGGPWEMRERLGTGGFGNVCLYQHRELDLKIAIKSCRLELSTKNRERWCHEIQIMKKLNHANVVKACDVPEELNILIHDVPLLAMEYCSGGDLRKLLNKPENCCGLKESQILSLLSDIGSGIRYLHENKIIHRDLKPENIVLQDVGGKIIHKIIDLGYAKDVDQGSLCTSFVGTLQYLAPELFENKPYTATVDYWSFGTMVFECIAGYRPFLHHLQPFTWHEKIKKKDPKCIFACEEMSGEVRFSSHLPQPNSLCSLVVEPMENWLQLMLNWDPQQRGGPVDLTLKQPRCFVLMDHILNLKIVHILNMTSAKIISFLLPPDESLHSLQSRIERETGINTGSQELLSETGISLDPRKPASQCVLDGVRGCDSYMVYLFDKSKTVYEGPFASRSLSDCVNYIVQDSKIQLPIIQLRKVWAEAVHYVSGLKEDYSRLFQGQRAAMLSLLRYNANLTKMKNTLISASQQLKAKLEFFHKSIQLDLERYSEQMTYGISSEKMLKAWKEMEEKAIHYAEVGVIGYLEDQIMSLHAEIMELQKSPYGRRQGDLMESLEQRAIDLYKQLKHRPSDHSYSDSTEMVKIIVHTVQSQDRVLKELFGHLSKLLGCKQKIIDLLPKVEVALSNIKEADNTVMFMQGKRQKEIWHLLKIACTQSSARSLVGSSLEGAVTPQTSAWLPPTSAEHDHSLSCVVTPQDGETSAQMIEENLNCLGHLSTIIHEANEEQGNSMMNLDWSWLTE
The experiment in a line: DELFIA IKKα kinase assay (apparent Ki, Cheng-Prusoff). The format is biochemical. The note with it: non-italicised figure: DELFIA assay. The protocol:
(§1) IKKα and IKKβ inhibitory activity was determined using three different assays: a dissociation enhanced ligand fluorescent immunoassay (DELFIA) based on the protocol of HTScan™ IKKβ Kinase Assay (Cell Signaling Technology, USA); an Adapta IKKα assay (performed by Life Technologies); a Z′-LYTE™ IKKβ assay (performed by Life Technologies).
(§2) Recombinant IKKα or IKKβ, 37 nM, (Millipore, Dundee, UK) was incubated with IηB-α (Ser32) (New England Biolabs, Hitchin, UK) biotinylated peptide substrate (0.375 μM) and 40 μM ATP in assay buffer (40 mM Tris-HCl (pH 7.5), 20 mM MgCl2, EDTA 1 mM, DTT 2 mM and BSA 0.01 mg/ml) in a V-well 96-well plate in the presence and absence of test compound. The assay plate was incubated for 60 minutes at 30° C. after which the kinase reaction was quenched by the addition of 50 mM EDTA, pH8. The resulting mixture was transferred to a streptavidin coated 96-well plate (Perkin Elmer, Beaconsfield, UK) and incubated for 1 hour at 30° C. to immobilise the substrate peptide. After three washes with wash buffer (0.01 M phosphate buffered saline (PBS), 0.05% Tween −20, pH 7.4) a primary antibody against the phosphorylated substrate (phospho-IηB-a) (Ser32/36) (5A5) Mouse mAb (New England Biolabs, Hitchin, UK) (1:1000 dilution with 1% bovine serum albumin (BSA) in wash buffer) was added and incubated at 37° C. for 2 h.
(§3) After a further three washes, a secondary europiated antibody (Eu-N1 labelled anti-mouse IgG, (Perkin Elmer, Beaconsfield, UK) diluted 1:500 in 1% BSA/wash buffer) was added and incubated at 30° C. for 30 minutes. After a further five washes, DELFIA enhancement solution—(Perkin Elmer, Beaconsfield UK) was added and allowed to incubate for 10 min at room temperature, protected from light, to facilitate the chemifluorescent detection. The relative fluorescence units (RFU) signal were measured on a Wallac Victor 1420 multilabel counter (Perkin Elmer, Beaconsfield, UK), in time-resolved fluorescence mode. The counter was set at an excitation wavelength of 340 nm with a 400 μs delay before detecting emitted light at 615 nm. The apparent Ki of the […] was calculated for each compound using the Cheng-Prusoff Equation.
(§4) The IKKα and IKKβ figures quoted in non-italicised form are from the DELFIA assay described above.

The target in another experiment is T2, Recombinant IKKβ (Homo sapiens, UniProt O14920).
T2 construct: purchased Millipore, Dundee, UK
T2 sequence (O14920 1-756): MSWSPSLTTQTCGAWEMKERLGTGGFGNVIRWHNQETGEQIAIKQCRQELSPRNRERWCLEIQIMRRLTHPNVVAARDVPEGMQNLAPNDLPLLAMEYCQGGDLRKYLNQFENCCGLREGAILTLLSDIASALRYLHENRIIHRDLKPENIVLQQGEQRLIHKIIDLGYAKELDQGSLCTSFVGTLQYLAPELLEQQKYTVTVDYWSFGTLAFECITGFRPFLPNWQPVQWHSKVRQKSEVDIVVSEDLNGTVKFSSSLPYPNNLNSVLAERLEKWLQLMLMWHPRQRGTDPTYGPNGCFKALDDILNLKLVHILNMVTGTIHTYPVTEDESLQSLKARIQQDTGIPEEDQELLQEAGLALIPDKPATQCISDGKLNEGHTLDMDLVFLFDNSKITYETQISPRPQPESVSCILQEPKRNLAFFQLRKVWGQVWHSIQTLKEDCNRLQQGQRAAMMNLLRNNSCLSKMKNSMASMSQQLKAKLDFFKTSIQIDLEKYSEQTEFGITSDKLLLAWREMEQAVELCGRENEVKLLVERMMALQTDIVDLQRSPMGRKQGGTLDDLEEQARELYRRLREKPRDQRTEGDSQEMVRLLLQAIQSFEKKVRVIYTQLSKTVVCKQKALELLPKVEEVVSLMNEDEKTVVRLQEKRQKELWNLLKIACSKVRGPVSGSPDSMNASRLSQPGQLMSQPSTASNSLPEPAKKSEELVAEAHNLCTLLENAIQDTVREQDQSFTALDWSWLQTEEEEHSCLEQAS
As to the kind of experiment: DELFIA IKKβ kinase assay (apparent Ki, Cheng-Prusoff). The note with it: non-italicised figure: DELFIA assay. The format is biochemical. The method, then: as §1, §2, §3, §4

With `Nc1n[nH]c2ccc(-c3ccnc(NC(=O)NC4CCCCC4)c3)cc12` [Example 40, 1-(4-(3-Amino-1H-indazol-5-yl)pyridin-2-yl)-3-cyclohexylurea], the Ki was 228 nM on Recombinant IKKα and over 10000 nM on Recombinant IKKβ.
Take `Nc1n[nH]c2ccc(-c3ccnc(NC(=O)NCCO)c3)cc12` [Example 41, 1-(4-(3-Amino-1H-indazol-5-yl)pyridin-2-yl)-3-(2-hydroxyethyl)urea]: the Ki on Recombinant IKKα was 21 nM; on Recombinant IKKβ, 754 nM.
Consider `Nc1n[nH]c2ccc(-c3ccnc(NC(=O)NCCCO)c3)cc12` [Example 42, 1-(4-(3-Amino-1H-indazol-5-yl)pyridin-2-yl)-3-(3-hydroxypropyl)urea], for which the Ki at Recombinant IKKα was found to be 114 nM; at Recombinant IKKβ it was 670 nM.
Take `COCCNC(=O)Nc1cc(-c2ccc3[nH]nc(N)c3c2)ccn1` [Example 43, 1-(4-(3-Amino-1H-indazol-5-yl)pyridin-2-yl)-3-(2-methoxyethyl)urea]: the Ki at Recombinant IKKα came to 76 nM; on Recombinant IKKβ, 1590 nM.
`CN(CCO)C(=O)Nc1cc(-c2ccc3[nH]nc(N)c3c2)ccn1` [Example 44, 3-(4-(3-Amino-1H-indazol-5-yl)pyridin-2-yl)-1-(2-hydroxyethyl)-1-methylurea]: the Ki on Recombinant IKKα was 418 nM; at Recombinant IKKβ it was over 10000 nM.
As for `Nc1n[nH]c2ccc(-c3ccnc(NC(=O)NCc4ccccc4)c3)cc12` [Example 45, 1-(4-(3-Amino-1H-indazol-5-yl)pyridin-2-yl)-3-benzylurea], the Ki on Recombinant IKKα turned out to be 152 nM; at Recombinant IKKβ it was 357 nM.
With `Nc1n[nH]c2ccc(-c3ccnc(NC(=O)NCCc4ccccc4)c3)cc12` [Example 46, 1-(4-(3-Amino-1H-indazol-5-yl)pyridin-2-yl)-3-phenethylurea], the Ki on Recombinant IKKα is 571 nM; on Recombinant IKKβ it was over 10000 nM.
As to `Nc1n[nH]c2ccc(-c3ccnc(NC(=O)NCc4ccccn4)c3)cc12` [Example 47, 1-(4-(3-Amino-1H-indazol-5-yl)pyridin-2-yl)-3-(pyridin-2-ylmethyl)urea], the Ki on Recombinant IKKα was determined as 38 nM; at Recombinant IKKβ, 838 nM.
In the same order, the values of `Nc1n[nH]c2ccc(-c3ccnc(NC(=O)NCc4cccnc4)c3)cc12` [Example 48, 1-(4-(3-Amino-1H-indazol-5-yl)pyridin-2-yl)-3-(pyridin-3-ylmethyl)urea] are 76 nM and 840 nM.
Regarding `Nc1n[nH]c2ccc(-c3ccnc(NC(=O)NCc4ccncc4)c3)cc12` [Example 49, 1-(4-(3-Amino-1H-indazol-5-yl)pyridin-2-yl)-3-(pyridin-4-ylmethyl)urea], the Ki worked out at 304 nM on Recombinant IKKα and 1840 nM at Recombinant IKKβ.
In the same order, the values of `Nc1n[nH]c2ccc(-c3ccnc(NC(=O)Nc4ccccc4)c3)cc12` [Example 50, 1-(4-(3-Amino-1H-indazol-5-yl)pyridin-2-yl)-3-phenylurea] are 12 nM and 293 nM.
For the compound `Nc1n[nH]c2ccc(-c3ccnc(NC(=O)Nc4cccc(F)c4)c3)cc12` [Example 51, 1-(4-(3-Amino-1H-indazol-5-yl)pyridine-2-yl)-3-(3-fluorophenyl)urea], the Ki at Recombinant IKKα is 14 nM; at Recombinant IKKβ, 126 nM.
`Nc1n[nH]c2ccc(-c3ccnc(NC(=O)Nc4cccc(Cl)c4)c3)cc12` [Example 52, 1-(4-(3-Amino-1H-indazol-5-yl)pyridin-2-yl)-3-(3-chlorophenyl)urea]: the Ki came to 36 nM at Recombinant IKKα and 400 nM at Recombinant IKKβ.
Regarding `CC(C)c1cccc(NC(=O)Nc2cc(-c3ccc4[nH]nc(N)c4c3)ccn2)c1` [Example 53], the Ki on Recombinant IKKα was 14 nM; on Recombinant IKKβ, 419 nM.
Take `Nc1n[nH]c2ccc(-c3ccnc(NC(=O)Nc4cccc(CO)c4)c3)cc12` [Example 54, 1-(4-(3-Amino-1H-indazol-5-yl)pyridin-2-yl)-3-(3-(hydroxymethyl)phenyl)urea]: the Ki was found to be 14 nM at Recombinant IKKα and 419 nM at Recombinant IKKβ.
For `NC(=O)c1cccc(NC(=O)Nc2cc(-c3ccc4[nH]nc(N)c4c3)ccn2)c1` [Example 55, 3-(3-(4-(3-Amino-1H-indazol-5-yl)pyridin-2-yl)ureido)benzamide], the Ki at Recombinant IKKα was found to be 21 nM; on Recombinant IKKβ, 503 nM.
As to `Nc1n[nH]c2ccc(-c3ccnc(NC(=O)Nc4cccc(Oc5ccccc5)c4)c3)cc12` [Example 56, 1-(4-(3-Amino-1H-indazol-5-yl)pyridin-2-yl)-3-(3-phenoxyphenyl)urea], the Ki on Recombinant IKKα came out at 237 nM; on Recombinant IKKβ, 3500 nM.
With `Nc1n[nH]c2ccc(-c3ccnc(NC(=O)Nc4cccc(OCc5ccccc5)c4)c3)cc12` [Example 57, 1-(4-(3-Amino-1H-indazol-5yl)pyridin-2-yl)-3-(3-(benzyloxy)phenyl)urea], the Ki was 38 nM at Recombinant IKKα and 4200 nM at Recombinant IKKβ.
In the case of `Nc1n[nH]c2ccc(-c3ccnc(NC(=O)Nc4cccc(OCc5ccc(F)cc5)c4)c3)cc12` [Example 58, 1-(4-(3-Amino-1H-indazol-5-yl)pyridin2-yl)-3-(3-((4-fluorobenzyl)oxy)phenyl)urea], the results for the Ki on Recombinant IKKα and on Recombinant IKKβ were 80 nM and 1970 nM, respectively.
Regarding `Nc1n[nH]c2ccc(-c3ccnc(NC(=O)Nc4cccc(OCc5cccc(F)c5)c4)c3)cc12` [Example 59, 1-(4-(3-Amino-1H-indazol-5-yl)pyridin-2-yl)-3-(3-((3-fIuorobenzyl)oxy)phenyl)urea], the Ki is 93 nM at Recombinant IKKα and 1780 nM at Recombinant IKKβ.
Taken in the same sequence, the figures for `Nc1n[nH]c2ccc(-c3ccnc(NC(=O)Nc4cccc(OCc5ccccc5F)c4)c3)cc12` [Example 60, 1-(4-(3-Amino-1H-indazol-5-yl)pyridin-2-yl)-3-(3-((2-fluorobenzyl)oxy)phenyl)urea] were 76 nM and 2480 nM.
Take `Nc1n[nH]c2ccc(-c3ccnc(NC(=O)Nc4cccc(C(=O)Nc5ccccc5)c4)c3)cc12` [Example 61, 3-(3-(4-(3-Amino-1H-indazol-5-yl)pyridine-2-yl)ureido)-N-phenylbenzamide]: the Ki on Recombinant IKKα was 171 nM; at Recombinant IKKβ, 419 nM.
On to `Nc1n[nH]c2ccc(-c3ccnc(NC(=O)Nc4ccc(F)cc4)c3)cc12` [Example 62, 1-(4-(3-Amino-1H-indazol-5-yl)pyridine-2-yl)-3-(4-fluorophenyl)urea], for which the Ki on Recombinant IKKα stood at 22 nM; on Recombinant IKKβ it was 115 nM.
